In patent US6861441B1, “Use of EP4 receptor ligands in the treatment of neuropathic pain and colon cancer” (SmithKline Beecham Corporation, priority 1999, dated 2005):

Legend:
human EP4 receptors = target: T1, human EP4 receptors (Homo sapiens, UniProt P35408); experiment: Human EP4 Scintillation Proximity Assay (SPA), [3H]-prostaglandin E2 competition binding
T1 construct: expressed in transfected cells; host or cells: Chinese Hamster Ovary (CHO) cells infected with Semliki Forest Virus carrying an SFV-1 RNA construct with the hEP4 receptor; membranes were prepared from these cells
Procedure: Quantification of radioligand binding by scintillation proximity assay (SPA) is a long-established principle. Briefly, the affinity of compounds for a receptor is assessed by the specific competition between known quantities of radiolabelled ligand and compound for that receptor. Increasing concentrations of compound reduce the amount of radiolabel that binds to the receptor. This gives rise to a diminishing scintillation signal from SPA beads coated with membranes that bear the receptor. The signal may be detected with a suitable scintillation counter and the data generated may be analysed with suitable curve-fitting software.
The human EP4 SPA assay (hereafter referred to as ‘the assay’) utilises membranes prepared from Chinese Hamster Ovary (CHO cells) infected with Semliki Forest Virus (SFV). […]
For assay, membranes expressing human EP4 receptors are diluted in a pH-buffered medium and mixed with SPA beads coated with a suitable substance to facilitate the adhesion of membranes to the beads. […] Nonspecific binding (nsb) may be determined by competition between the radiolabelled ligand and a saturating concentration of unlabelled ligand. In order to quantify the affinity of EP4 receptor ligands, compounds are diluted in a stepwise manner across the wells of a 96-well plate. […] The affinity (pKi) of the compound may be calculated from the IC50 by application of the Cheng-Prusoff correction. […]

[1] = tested on: CCI-induced neuropathic hypersensitivity in male random hooded rats; experiment: Chronic constriction injury (CCI) model of neuropathic hypersensitivity, paw withdrawal threshold; type: in vivo, rat; settings: 10 mgkg-1 b.i.d. PO
From the text: Under isoflurane anaesthesia, the common left sciatic nerve was exposed at mid thigh level and four loose ligatures of Chromic gut tied around it. The wound was then closed and secured using suture clips. The surgical procedure was identical for the sham operated animals except the sciatic nerve was not ligated. The rats were allowed a period of seven days to recover from the surgery before behavioural testing began.

T1 sequence (P35408 whole entry): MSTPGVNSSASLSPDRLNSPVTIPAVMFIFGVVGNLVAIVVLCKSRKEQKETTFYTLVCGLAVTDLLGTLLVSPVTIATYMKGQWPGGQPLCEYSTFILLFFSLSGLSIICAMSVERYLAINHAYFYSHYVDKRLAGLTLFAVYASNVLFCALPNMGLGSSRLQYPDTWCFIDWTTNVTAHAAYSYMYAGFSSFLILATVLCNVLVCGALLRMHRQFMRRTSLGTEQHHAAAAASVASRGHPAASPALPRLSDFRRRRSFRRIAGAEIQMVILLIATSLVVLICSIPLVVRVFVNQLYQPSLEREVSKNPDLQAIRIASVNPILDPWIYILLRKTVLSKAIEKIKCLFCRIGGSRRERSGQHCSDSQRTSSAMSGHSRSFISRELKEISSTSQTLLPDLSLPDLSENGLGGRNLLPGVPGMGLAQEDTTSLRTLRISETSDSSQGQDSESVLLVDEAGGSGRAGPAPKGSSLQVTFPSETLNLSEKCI

`CCOc1c2c(c(OCC)c3ccccc13)C(=O)N(c1ccc(CC(=O)O)cc1)C2` [IF, [4-(4,9-diethoxy-1-oxo-1,3-dihydro-2H-benzo[f]isoindol-2-yl)phenyl]acetic Acid] was tested, and the Ki (human EP4 receptors) was 100 nM, the “time of chronic dosing until reversal became apparent” value ([1]; days 20-33 postoperative) was 3 days and the “time of chronic dosing until reversal was maximal” value ([1]; days 20-33 postoperative) was 1 week. For the same compound, the “effect on CCI-induced decrease in paw withdrawal threshold” value ([1]; dosed chronically for 14 days (days 20-33 postoperative)) was “reversal of the CCI-induced decrease in paw withdrawal threshold” and the “paw withdrawal threshold following cessation of the drug treatment” value ([1]; after the 14-day dosing period) was “returned to that of the vehicle treated CCI-operated animals”.
